Data: paper PMC2921400 (PLoS ONE, 2010)
Several values for one entry are separate records, joined by “and”; a condition that tells them apart may be missing. Equal values may be shown once. Read-outs that look alike come from different tables or passages of the source.

What was measured:
[1] = critical micelle concentration by 1D proton NMR; type: physicochemical
[2] = target: T1, gp120 (IIIB)-CD4 complex (Homo sapiens, UniProt P01730); experiment: gp120 capture ELISA, inhibition of gp120-CD4 complex formation; type: binding, HIV-1
T1 construct: soluble extracellular portion of CD4 (sCD4); purchased ImmunoDiagnostics, Inc., MA
Protocol: Figure 3 Inhibition of gp120-CD4 complex formation. Inhibition of gp120-CD4 complex formation was investigated by gp120 capture ELISA. […] Strepavidin-HRP was added, and then developed by addition of o-Phenylenediamine dihydrochloride (OPD) substrate. Colorimetric reaction was stopped by adding 1N HCl, and read at 490 nm. Percent of gp120-CD4 binding was calculated from gp120-CD4 complex formation in the absence of any inhibitor. pKi (-log Ki, M) was calculated and plotted in Prizm (GraphPad Software), and inhibition constant, Ki, was calculated by using the equation Ki = IC50/(1+[CD4]/Kd), based on IC50 concentration of bound CD4, [CD4] = 50 nM, and CD4 binding affinity for gp120, Kd = 5 nM. Representative of three experiments, all data are mean ± SD.
Inhibition of gp120-CD4 complex formation was investigated by CD4-to-gp120 capture ELISA, in accordance with manufacturer's instructions (ImmunoDiagnostics, Inc., MA), and as previously described. […] Strepavidin-HRP was added, and then developed by addition of OPD substrate. Colorimetric reaction was stopped by adding 1N HCl, and read at 490 nm. Percent of gp120-CD4 binding was calculated from gp120-CD4 complex formation in the absence of any inhibitor.

[3] = target: T2, soluble extracellular portion of CD4 (sCD4) (Homo sapiens, UniProt P01730); experiment: sCD4 tryptophan fluorescence titration; type: binding; details: for Kd: pH 7.4, single site binding isotherm; for quenching of sCD4 tryptophan fluorescence / red shift of the emission peak: saturating concentrations of PA analog
T2 construct: soluble extracellular portion of CD4 (sCD4); purchased Progenics Pharmaceuticals, Inc
Protocol: The tryptophan fluorescence of the soluble extracellular portion of CD4 (sCD4) was used to estimate binding affinity of PA analogs for sCD4 in-vitro (Figure 2).
Figure 2 In vitro experiments of PA analogs binding to sCD4. Binding isotherm of the sCD4 tryptophan fluorescence at the wavelength of 350 nm with the increasing concentration of A) 2-BP, B) 6-AP, and C) SP; D) stoichiometric binding of 2-BP to sCD4. Tryptophan fluorescence was measured using an excitation wavelength of 280 nm. In all cases, we observed tryptophan fluorescence quenching of sCD4 by the increasing concentration of PA analogs. During stoichiometric binding experiment the concentration of sCD4 was kept at 200 nM, which is well above the dissociation constant of 2-BP-sCD4, 74 nM. Curve fitting (OriginLab) was performed to find the best values for Kd using a single site binding isotherm approximation.
Since PA analogs form micelles at micromolar concentration it was important to characterize binding stoichiomentry of PA analogs to CD4 (Figure 2D). […] The concentration of sCD4 was kept at 200 nM, which is well above the 74 nM dissociation constant of 2-BP-CD4. In this case, titrated 2-BP was fully bound. The observed changes in sCD4 fluorescence would level off when 2-BP-sCD4 reached proper stoichiometry.
Measurements were performed on a Fluorolog-3 fluorescence spectrophotometer (HORIBA Jobin Yvon) at 25°C in a 1-ml stirred cuvette. For fluorescence titration experiments, 100 nM of sCD4 dissolved in 10 mM phosphate buffer [pH 7.4] and 250 mM NaCl was used, and 100 µM solution of PA analogs, 2-BP, 6-AP, and SP dissolved in dimethylsulfoxide (DMSO) was added in 10 nM steps. Titrations in the absence of sCD4 and in the absence PA analogs were performed as reference. Tryptophan fluorescence was measured using an excitation wavelength of 280 nm. The fluorescence emission signal was subtracted from the signal of the reference titrations, and the differences adjusted by the dilution factor were plotted against the final concentration of added PA analogs. Curve fitting (OriginLab) was performed to find the best values for Kd using a single site binding isotherm approximation.

[4] = target: T3, soluble gp120 (Human immunodeficiency virus type 1 group M subtype B, UniProt P03375); experiment: reverse ELISA: plates coated with sCD4, gp120 incubated with compound; type: binding, HIV-1; details: plates coated with sCD4, gp120 incubated with increasing concentrations (not shown)
T3 construct: purchased

[5] = MTT viability assay in 1G5 cells; type: cell-based; details: human, 1G5 cells, 100 to 10,000 nM, up to 72 h, vs untreated mock control
Protocol: (§1) To ascertain possible toxicity of PA analogs, we tested each analog in cell culture system (Figure 4). 1G5 cells were treated with increasing concentrations of 2-BP, 6-AP, or SP, from 100 to 10,000 nM, and viability was determined by MTT assay at 24 h. (not shown) and at 72 h (Figure 4). Viability for all treatments and at all concentrations tested, remained ≥92% for up to 72 h. of follow-up.
(§2) Figure 4 Viability of PA analogs in tissue culture. 1G5 cells were treated with increasing concentrations of 2-BP, 6-AP, and SP, as indicated, and cell viability was determined 72 h. after treatment by MTT assay. % Viable cells were calculated from untreated mock control, which was taken as 100% viable. Bars indicate ± SD, representative of 2 experiments.
(§3) For determination of viability, 1G5 cells were seeded in 12 well plates at 1×10^6 cells/well, treated with increasing concentrations of PA analogs, from 100 to 10,000 nM (0.1 to 10 µM), as indicated. After 24 and 72 hours, cells were collected and analyzed for viability by a CellTiter 96 Non-Radioactive Cell Proliferation Assay [(3-(4,5-Dimethyl-2-thiazolyl)-2,5 dephenyltetrazolium, Promega,] (MTT) assay, as specified by the manufacturer, and as previously described.

[6] = test system: R5-tropic HIV-1; set-up: method as in submitted for publication; details: ref submitted for publication, cited from earlier work
[7] = target: gp120-to-CD4 attachment; set-up: method as in submitted for publication; details: ref submitted for publication; read-out: Ki for blocking gp120-to-CD4 attachment; cited from earlier work
[8] = test system: gp120; details: cited from earlier work
[9] = target: CD4 receptor; details: cited from earlier work
[10] = test system: X4-tropic HIV-1; details: primary PBL and macrophages; read-out: IC50 of productive X4-tropic HIV-1 infection; cited from earlier work
[11] = test system: R5-tropic HIV-1; details: primary PBL and macrophages; read-out: IC50 of productive R5-tropic HIV-1 infection; cited from earlier work
[12] = test system: 1G5 cells; experiment: MTT viability assay in 1G5 cells; type: cell-based; details: 100 to 10,000 nM, up to 72 h, vs untreated mock control
Protocol: as §1, §2, §3

[13] = Ki = IC50/(1+[CD4]/Kd), [CD4] = 50 nM, Kd = 5 nM, read-out: Ki, inhibition constant for gp120-CD4 complex formation
[14] = 100 nM sCD4, 25°C, read-out: Kd, dissociation constant for sCD4

Row | Compound | cmc, critical micelle concentration [1] [µM] | Ki [2, 13] | Ki ([2]; pKi (-log Ki, M), gp120 (IIIB), 50 nM biotin-sCD4, mean ± SD) [nM] | Kd ([3]; Kd, dissociation constant for sCD4, 100 nM sCD4, 25°C) | quenching of sCD4 tryptophan fluorescence [3] [%] | red shift of the emission peak [3] [nm] | concentration at which fluorescence quenching was saturated ([3]; stoichiometric titration, sCD4 kept at 200 nM) [µM] | inhibition of gp120-CD4 complex formation in reverse experiment [4] | viability [5] [%] | Ki ([2]; Ki, inhibition constant for gp120-CD4 complex formation, Ki = IC50/(1+[CD4]/Kd), [CD4] = 50 nM, Kd = 5 nM) | Kd [3, 14] | inhibition of R5-tropic HIV-1 infection ([6]; cervical explant model of human vagina and submucosa primary PBL and macrophage cells) | toxicity in cervical explant model ([6]; cervical explant model of human vagina) | Ki [7] [nM] | binding to gp120 [8] | Kd [9] [nM] | IC50 [10] [nM] | IC50 [11] [nM] | pKi (-log Ki, M) ([2]; gp120 (IIIB), 50 nM biotin-sCD4, mean ± SD) | viability [12] [%]
1 | CCCCCCCCCCCCCCC(Br)C(=O)O (centres unmarked) [2-BP, 2-Bromohexadecanoic acid] | 5 | 122 nM and ~122 nM | 120 | 74 nM and ~74 nM | 50 | 4 | 200 | not inhibited | ≥ 92 |  |  |  |  |  |  |  |  |  |  | 
2 | CCCCCCCCCCCCCCCC(=O)OC[C@H](O)[C@H]1OC(=O)C(O)=C1O [6-AP, 6-O-Palmitoyl-L-ascorbic acid] | 7 |  |  |  | 40 | 3 |  | not inhibited | ≥ 92 | 354 nM and ~354 nM | 140 nM and ~140 nM |  |  |  |  |  |  |  |  | 
3 | CCCCCCCCCCCCCCCC(=O)O [PA, Palmitic acid] | 4 |  |  |  |  |  |  |  |  |  |  | inhibited | without toxicity | ~2530 | does not bind to gp120 | ~1500 | ~340 | ~33000 |  | 
4 | Sucrose palmitate [SP] | 30 | 1490 nM and ~1490 nM |  |  | 60 | 5 |  | not inhibited |  |  | 364 nM and ~364 nM |  |  |  |  |  |  |  | 5.83 ± 0.15 | ≥ 92
